These results are taken from PubChem BioAssay AID1259407 (Chemical Carcinogenesis Research Information System (CCRIS), 2018).

Calls of active or inactive are those of the source. The rule behind the calls is not given here.

This data set deals with CCRIS mutagenicity, Ames/micronucleus/aberration tests. The data set can be described thus: CCRIS mutagenicity studies.
[1] abbreviates: Test System: AMES SALMONELLA TYPHIMURIUM, Strain/Indicator: TA98, Metabolic Activation: NONE, Method: STANDARD PLATE.
Where [2] appears, read: Test System: AMES SALMONELLA TYPHIMURIUM, Strain/Indicator: TA98, Metabolic Activation: RAT, LIVER, S-9, AROCLOR 1254, Method: STANDARD PLATE.
Where [3] appears, read: Test System: AMES SALMONELLA TYPHIMURIUM, Strain/Indicator: TA100, Metabolic Activation: NONE, Method: STANDARD PLATE.
The mark [4] stands for this setting: Test System: AMES SALMONELLA TYPHIMURIUM, Strain/Indicator: TA100, Metabolic Activation: RAT, LIVER, S-9, AROCLOR 1254, Method: STANDARD PLATE.
Where [5] appears, read: Test System: AMES SALMONELLA TYPHIMURIUM, Strain/Indicator: TA1535, Metabolic Activation: NONE, Method: STANDARD PLATE.
[6] abbreviates: Test System: AMES SALMONELLA TYPHIMURIUM, Strain/Indicator: TA1537, Metabolic Activation: RAT, LIVER, S-9, AROCLOR 1254, Method: STANDARD PLATE.
Where [7] appears, read: Test System: AMES SALMONELLA TYPHIMURIUM, Strain/Indicator: TA1538, Metabolic Activation: NONE, Method: STANDARD PLATE.
[8] abbreviates: Test System: AMES SALMONELLA TYPHIMURIUM, Strain/Indicator: TA1538, Metabolic Activation: RAT, LIVER, S-9, AROCLOR 1254, Method: STANDARD PLATE.

Take `Nc1ccc2c(c1)C(=O)c1ccccc1C2=O`: the mutagenic call is, setting by setting: (End Point: IN VITRO CHROMOSOMAL ABERRATIONS, Test System: CHL CELLS, Metabolic Activation: RAT, LIVER, S-9, SODIUM PHENOBARBITAL AND 5,6-BENZOFLAVONE) “inactive; negative”; (Test System: AMES SALMONELLA TYPHIMURIUM, Strain/Indicator: TA98, Metabolic Activation: HAMSTER, LIVER, S-9, AROCLOR 1254, Method: STANDARD PLATE) “active; positive”; (Test System: AMES SALMONELLA TYPHIMURIUM, Strain/Indicator: TA98, Metabolic Activation: HAMSTER, LIVER, S-9, Method: STANDARD PLATE) “active; positive”; (Test System: AMES SALMONELLA TYPHIMURIUM, Strain/Indicator: TA98, Metabolic Activation: MOUSE, LIVER, S-9, AROCLOR 1254, Method: STANDARD PLATE) “active; positive”; (Test System: AMES SALMONELLA TYPHIMURIUM, Strain/Indicator: TA98, Metabolic Activation: MOUSE, LIVER, S-9, Method: STANDARD PLATE) “active; positive”; under setting [1], “inactive; negative”. Further, the mutagenic call is “active; positive” under setting [2]; “active; positive” (Test System: AMES SALMONELLA TYPHIMURIUM, Strain/Indicator: TA98, Metabolic Activation: RAT, LIVER, S-9, Method: STANDARD PLATE); “active; positive” (Test System: AMES SALMONELLA TYPHIMURIUM, Strain/Indicator: TA100, Metabolic Activation: HAMSTER, LIVER, S-9, AROCLOR 1254, Method: STANDARD PLATE); “active; positive” (Test System: AMES SALMONELLA TYPHIMURIUM, Strain/Indicator: TA100, Metabolic Activation: HAMSTER, LIVER, S-9, Method: STANDARD PLATE); “active; positive” (Test System: AMES SALMONELLA TYPHIMURIUM, Strain/Indicator: TA100, Metabolic Activation: MOUSE, LIVER, S-9, AROCLOR 1254, Method: STANDARD PLATE); “inactive; negative” under setting [3]. The mutagenic call is “active; positive” under setting [4]; “inactive; negative” (Test System: AMES SALMONELLA TYPHIMURIUM, Strain/Indicator: TA1535, Metabolic Activation: HAMSTER, LIVER, S-9, Method: STANDARD PLATE); “inactive; negative” (Test System: AMES SALMONELLA TYPHIMURIUM, Strain/Indicator: TA1535, Metabolic Activation: MOUSE, LIVER, S-9, AROCLOR 1254, Method: STANDARD PLATE); “inactive; negative” (Test System: AMES SALMONELLA TYPHIMURIUM, Strain/Indicator: TA1535, Metabolic Activation: MOUSE, LIVER, S-9, Method: STANDARD PLATE); “inactive; negative” under setting [5]; “active; positive” (Test System: AMES SALMONELLA TYPHIMURIUM, Strain/Indicator: TA1537, Metabolic Activation: HAMSTER, LIVER, S-9, AROCLOR 1254, Method: STANDARD PLATE). The mutagenic call runs as follows: (Test System: AMES SALMONELLA TYPHIMURIUM, Strain/Indicator: TA1537, Metabolic Activation: HAMSTER, LIVER, S-9, Method: STANDARD PLATE) “active; positive”; (Test System: AMES SALMONELLA TYPHIMURIUM, Strain/Indicator: TA1537, Metabolic Activation: MOUSE, LIVER, S-9, AROCLOR 1254, Method: STANDARD PLATE) “active; positive”; (Test System: AMES SALMONELLA TYPHIMURIUM, Strain/Indicator: TA1537, Metabolic Activation: MOUSE, LIVER, S-9, Method: STANDARD PLATE) “active; positive”; under setting [6], “active; positive”; (Test System: AMES SALMONELLA TYPHIMURIUM, Strain/Indicator: TA1537, Metabolic Activation: RAT, LIVER, S-9, Method: STANDARD PLATE) “active; positive”; (Test System: AMES SALMONELLA TYPHIMURIUM, Strain/Indicator: TA1538, Metabolic Activation: HAMSTER, LIVER, S-9, AROCLOR 1254, Method: STANDARD PLATE) “active; positive”. Besides, the mutagenic call (Test System: AMES SALMONELLA TYPHIMURIUM, Strain/Indicator: TA1538, Metabolic Activation: HAMSTER, LIVER, S-9, Method: STANDARD PLATE) is “active; positive”; the mutagenic call (Test System: AMES SALMONELLA TYPHIMURIUM, Strain/Indicator: TA1538, Metabolic Activation: MOUSE, LIVER, S-9, AROCLOR 1254, Method: STANDARD PLATE) was “active; positive”; the mutagenic call (Test System: AMES SALMONELLA TYPHIMURIUM, Strain/Indicator: TA1538, Metabolic Activation: MOUSE, LIVER, S-9, Method: STANDARD PLATE) was “active; positive”; the mutagenic call under setting [7] is “inactive; negative”; the mutagenic call under setting [8] is “active; positive”; the mutagenic call (Test System: AMES SALMONELLA TYPHIMURIUM, Strain/Indicator: TA1538, Metabolic Activation: RAT, LIVER, S-9, Method: STANDARD PLATE) was “active; positive”. Also, the mutagenic call (Test System: E. COLI, Strain/Indicator: WP2 UVRA, Metabolic Activation: HAMSTER, LIVER, S-9, Method: STANDARD PLATE) was “inactive; negative”; the mutagenic call (Test System: E. COLI, Strain/Indicator: WP2 UVRA, Metabolic Activation: MOUSE, LIVER, S-9, Method: STANDARD PLATE) was “inactive; negative”; the mutagenic call (Test System: E. COLI, Strain/Indicator: WP2 UVRA, Metabolic Activation: NONE, Method: STANDARD PLATE) is “inactive; negative”; the mutagenic call (Test System: E. COLI, Strain/Indicator: WP2 UVRA, Metabolic Activation: RAT, LIVER, S-9, Method: STANDARD PLATE) was “inactive; negative”; the mutagenic call (Test System: MOUSE LYMPHOMA, Strain/Indicator: L5178Y (TK+/TK-), Metabolic Activation: NONE, Method: SUSPENSION/PLATE) was “active; positive”.
Turning to `O=Nc1cccc(-c2ccccc2)c1`, the mutagenic call is “active; positive” under setting [1] and “active; positive” under setting [3].
In the case of `O=NN1CSCC1C(=O)O` (stereo unspecified), the mutagenic call is “inactive; negative” (Test System: AMES SALMONELLA TYPHIMURIUM, Strain/Indicator: TA98, Metabolic Activation: NONE, Method: PREINCUBATION); “inactive; negative” under setting [1]; “inactive; negative” (Test System: AMES SALMONELLA TYPHIMURIUM, Strain/Indicator: TA98, Metabolic Activation: RAT, LIVER, S-9, AROCLOR 1254, Method: PREINCUBATION); “inactive; negative” under setting [2]; “inactive; negative” (Test System: AMES SALMONELLA TYPHIMURIUM, Strain/Indicator: TA100, Metabolic Activation: NONE, Method: PREINCUBATION); “inactive; negative” under setting [3]. Further, the mutagenic call (Test System: AMES SALMONELLA TYPHIMURIUM, Strain/Indicator: TA100, Metabolic Activation: RAT, LIVER, S-9, AROCLOR 1254, Method: PREINCUBATION) is “inactive; negative” and the mutagenic call under setting [4] is “inactive; negative”.
In the case of `[Cl][Sn][Cl]`, the mutagenic call was “active; positive; precipitation occurred at all doses” (End Point: IN VITRO CHROMOSOMAL ABERRATIONS, Test System: CHO CELLS, Metabolic Activation: RAT, LIVER, S-9, AROCLOR 1254); “active; positive (structural and ploidy changes)” (End Point: In vivo chromosomal aberrations, Test System: Bone marrow cells (dams), liver cells (fetuses), Species: Mouse, Strain/Sex: Swiss/Female, Route: Oral); “inactive; negative” under setting [1]; “inactive; negative” under setting [2]; “inactive; negative” under setting [3]; “inactive; negative” under setting [4]. Moreover, the mutagenic call is “inactive; negative” under setting [5]; “inactive; negative” (Test System: AMES SALMONELLA TYPHIMURIUM, Strain/Indicator: TA1535, Metabolic Activation: RAT, LIVER, S-9, AROCLOR 1254, Method: STANDARD PLATE); “inactive; negative” (Test System: AMES SALMONELLA TYPHIMURIUM, Strain/Indicator: TA1537, Metabolic Activation: NONE, Method: STANDARD PLATE); “inactive; negative” under setting [6]; “inactive; negative” under setting [7]; “inactive; negative” under setting [8]. Further, the mutagenic call is “inactive; negative” (Test System: E. COLI, Strain/Indicator: WP2, Metabolic Activation: NONE, Method: STANDARD PLATE); “inactive; negative” (Test System: E. COLI, Strain/Indicator: WP2, Metabolic Activation: RAT, LIVER, S-9, AROCLOR 1254, Method: STANDARD PLATE); “inactive; negative” (Test System: E. COLI, Strain/Indicator: WP2 UVRA, Metabolic Activation: NONE, Method: SPOT TEST); “inactive; negative” (Test System: UDS RAT HEPATOCYTES, Strain/Indicator: THY INCORP, Metabolic Activation: NONE).
